# Results taken from article PMC2156105 (The Journal of biological chemistry, 2007).
# Legend:
# [1] = molecular target: AMPK γ2 subunit (Bateman domains) (Homo sapiens, UniProt Q9UGJ0); experiment: scintillation proximity assay, displacement of [3H]AMP by unlabelled AMP; assay type: binding
# [2] = molecular target: AMP-activated protein kinase (AMPK), native rat liver αβγ complex (γ1 subunit) (Rattus norvegicus, UniProt P80385); experiment: kinase activity assay of purified rat liver AMPK; assay type: biochemical
# AMP-activated protein kinase (AMPK), native rat liver αβγ complex (γ1 subunit), sequence (P80385 whole entry): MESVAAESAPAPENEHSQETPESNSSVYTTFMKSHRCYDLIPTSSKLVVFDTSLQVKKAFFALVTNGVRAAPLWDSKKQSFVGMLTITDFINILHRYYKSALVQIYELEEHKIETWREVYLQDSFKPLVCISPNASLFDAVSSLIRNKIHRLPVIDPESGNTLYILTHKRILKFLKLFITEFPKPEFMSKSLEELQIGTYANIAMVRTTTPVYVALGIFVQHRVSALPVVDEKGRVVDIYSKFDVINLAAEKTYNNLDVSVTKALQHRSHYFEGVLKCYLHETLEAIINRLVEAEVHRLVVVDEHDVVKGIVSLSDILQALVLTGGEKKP
# AMP-activated protein kinase (AMPK), native rat liver αβγ complex (γ1 subunit), sequence (P54645 whole entry partner): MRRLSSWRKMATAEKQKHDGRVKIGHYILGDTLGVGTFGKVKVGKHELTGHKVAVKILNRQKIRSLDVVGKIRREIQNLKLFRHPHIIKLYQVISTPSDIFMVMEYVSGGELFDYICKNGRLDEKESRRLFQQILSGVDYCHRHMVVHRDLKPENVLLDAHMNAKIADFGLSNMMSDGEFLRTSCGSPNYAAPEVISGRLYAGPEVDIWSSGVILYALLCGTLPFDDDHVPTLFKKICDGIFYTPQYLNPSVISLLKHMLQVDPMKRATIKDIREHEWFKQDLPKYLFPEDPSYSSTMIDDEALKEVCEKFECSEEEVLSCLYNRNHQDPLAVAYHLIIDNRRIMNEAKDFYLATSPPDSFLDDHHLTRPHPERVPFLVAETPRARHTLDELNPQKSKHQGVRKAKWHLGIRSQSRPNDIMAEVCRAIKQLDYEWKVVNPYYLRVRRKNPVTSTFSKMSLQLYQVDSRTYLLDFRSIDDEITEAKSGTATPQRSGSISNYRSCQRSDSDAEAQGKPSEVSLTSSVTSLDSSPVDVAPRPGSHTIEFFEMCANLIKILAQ
# AMP-activated protein kinase (AMPK), native rat liver αβγ complex (γ1 subunit), sequence (Q09137 whole entry partner): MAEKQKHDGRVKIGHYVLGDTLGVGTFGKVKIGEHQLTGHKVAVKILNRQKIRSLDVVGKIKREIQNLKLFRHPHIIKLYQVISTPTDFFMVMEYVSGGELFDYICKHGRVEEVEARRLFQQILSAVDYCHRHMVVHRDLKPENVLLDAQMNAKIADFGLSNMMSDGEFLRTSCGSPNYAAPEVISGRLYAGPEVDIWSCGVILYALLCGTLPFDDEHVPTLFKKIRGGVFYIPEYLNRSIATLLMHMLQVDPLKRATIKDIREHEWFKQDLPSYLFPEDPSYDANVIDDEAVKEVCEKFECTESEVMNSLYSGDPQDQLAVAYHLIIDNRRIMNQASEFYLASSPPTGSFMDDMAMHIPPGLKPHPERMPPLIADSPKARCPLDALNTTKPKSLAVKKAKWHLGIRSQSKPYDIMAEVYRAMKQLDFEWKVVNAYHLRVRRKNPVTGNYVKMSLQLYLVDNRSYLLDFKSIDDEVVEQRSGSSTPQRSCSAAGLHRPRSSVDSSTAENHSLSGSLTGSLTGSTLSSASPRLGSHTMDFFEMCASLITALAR
# AMP-activated protein kinase (AMPK), native rat liver αβγ complex (γ1 subunit), sequence (P80386 2-270 partner): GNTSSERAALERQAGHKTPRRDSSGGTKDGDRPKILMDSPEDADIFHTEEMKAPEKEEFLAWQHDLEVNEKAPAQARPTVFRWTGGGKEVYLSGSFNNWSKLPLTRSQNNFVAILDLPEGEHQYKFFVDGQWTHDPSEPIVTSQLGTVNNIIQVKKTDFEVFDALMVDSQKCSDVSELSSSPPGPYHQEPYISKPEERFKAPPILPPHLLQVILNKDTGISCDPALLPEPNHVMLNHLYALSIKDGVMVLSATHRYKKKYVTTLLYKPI
# AMPK γ2 subunit (Bateman domains), sequence (Q9UGJ0 275-562 limits assumed): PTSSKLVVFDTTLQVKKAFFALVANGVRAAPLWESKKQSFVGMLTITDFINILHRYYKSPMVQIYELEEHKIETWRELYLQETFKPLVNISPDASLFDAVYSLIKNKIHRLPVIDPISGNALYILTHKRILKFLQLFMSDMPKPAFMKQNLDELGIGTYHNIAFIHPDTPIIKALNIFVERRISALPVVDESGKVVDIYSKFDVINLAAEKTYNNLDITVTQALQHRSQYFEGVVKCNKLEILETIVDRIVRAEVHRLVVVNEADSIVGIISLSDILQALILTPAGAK
structure (smiles),measurement,setting,value
Nc1ncnc2c1ncn2[C@@H]1O[C@H](COP(=O)(O)O)[C@@H](O)[C@H]1O [AMP],Kd,[1],80 ± 15 µM
same,EC50,[2],6 ± 3 µM
